Laboratory results from US8710085B2, “Pyrrolidine-1,2-dicarboxamide derivatives” (Novartis AG, priority 2008, dated 2014).

Experiments:
[1] = target: T1, PI3Kγ (Homo sapiens, UniProt P48736, Q459R); experiment: PI3K KinaseGlo assay, PI3Kγ; format: biochemical; settings: 150 nM enzyme, 1 μM ATP, 90 mins, room temperature, read-out: PI3Kg/IC50
T1 construct: p110γ(Δ143-[Met144-1102])-His; made in house; host or cells: Tn5 insect cells; construct from Roger Williams lab, MRC LMB
Procedure: (§1) L-a-phosphatidylinositol (PI), provided as 10 mg/ml solution in methanol, was transferred into a glass tube and dried under nitrogen beam. It was then resuspended in 3% OctylGlucoside (OG) by vortexing and stored at 4° C. The KinaseGlo Luminescent Kinase Assay (Promega, Madison/WI, USA) is a homogeneous HTS method of measuring kinase activity by quantifying the amount of ATP remaining in solution following a kinase reaction.
5 μL of a mix of PI/OG with the PI3K subtype were added (Table 1). Kinase reactions were started by addition of 5 μl of ATP-mix containing in a final volume 10 μL 10 mM TRIS-HCl pH 7.5, 3 mM MgCl2, 50 mM NaCl, 0.05% CHAPS, 1 mM DTT and 1 μM ATP, and occurred at room temperature. […] The standard was used as a reference compound and included in all assay plates in the form of 16 dilution points in duplicate. […]
(§2) PI3Kα, PI3Kβ and PI3Kγ were purified in two chromatographic steps: immobilized metal affinity chromatography (IMAC) on a Ni sepharose resin (GE Healthcare) and gel filtration utilizing a Superdex 200 26/60 column (GE Healthcare). All buffers were chilled to 4° C. and lysis was performed chilled on ice. Column fractionation was performed at room temperature. All buffers used to purify PI3Kβ contained 0.05% Triton X100 in addition to what is described below.
(§3) The lysate was centrifuged at 45,000 g for 30 minutes, and the supernatant was loaded onto a pre-equilibrated IMAC column (3 mL resin/100 mL lysate). […] Protein was eluted with 20 mM Tris-Cl, pH 7.5, 0.5 M NaCl, 5% glycerol, 250 mM imidazole, 1 mM NaF, 0.1 μg/mL OAA, 5 mM BME, 1× Complete protease inhibitor cocktail—EDTA-free. Pertinent fractions were analyzed by SDS-PAGE and pooled accordingly. The protein was further purified by gel filtration on a Superdex 200 26/60 column equilibrated in 20 mM Tris-Cl, pH 7.5, 0.5 M NaCl, 5% glycerol, 1 mM NaF, 5 mM DTT, 1× Complete protease inhibitor cocktail—EDTA-free. Pertinent fractions were analyzed by SDS-PAGE and pooled accordingly. An equal volume of Dialysis Buffer (20 mM Tris-Cl, pH 7.5, 500 mM NaCl, 50% glycerol, 5 mM NaF, 5 mM DTT) was added to the pool and than dialyzed against Dialysis Buffer two changes (one change overnight). Protein was stored at −20° C.

[2] = target: T2, PI3Kα (Homo sapiens, UniProt P42336); experiment: PI3K KinaseGlo assay, PI3Kα; format: biochemical; settings: KinaseGlo; 10 nM enzyme, 1 μM ATP, 30 mins, room temperature; read-out: PI3Ka/IC50
T2 construct: p110α(21-1068)-His; made in house; host or cells: baculovirus, Tn5 insect cells
T2 sequence (P42336 with tags, fused parts or gaps): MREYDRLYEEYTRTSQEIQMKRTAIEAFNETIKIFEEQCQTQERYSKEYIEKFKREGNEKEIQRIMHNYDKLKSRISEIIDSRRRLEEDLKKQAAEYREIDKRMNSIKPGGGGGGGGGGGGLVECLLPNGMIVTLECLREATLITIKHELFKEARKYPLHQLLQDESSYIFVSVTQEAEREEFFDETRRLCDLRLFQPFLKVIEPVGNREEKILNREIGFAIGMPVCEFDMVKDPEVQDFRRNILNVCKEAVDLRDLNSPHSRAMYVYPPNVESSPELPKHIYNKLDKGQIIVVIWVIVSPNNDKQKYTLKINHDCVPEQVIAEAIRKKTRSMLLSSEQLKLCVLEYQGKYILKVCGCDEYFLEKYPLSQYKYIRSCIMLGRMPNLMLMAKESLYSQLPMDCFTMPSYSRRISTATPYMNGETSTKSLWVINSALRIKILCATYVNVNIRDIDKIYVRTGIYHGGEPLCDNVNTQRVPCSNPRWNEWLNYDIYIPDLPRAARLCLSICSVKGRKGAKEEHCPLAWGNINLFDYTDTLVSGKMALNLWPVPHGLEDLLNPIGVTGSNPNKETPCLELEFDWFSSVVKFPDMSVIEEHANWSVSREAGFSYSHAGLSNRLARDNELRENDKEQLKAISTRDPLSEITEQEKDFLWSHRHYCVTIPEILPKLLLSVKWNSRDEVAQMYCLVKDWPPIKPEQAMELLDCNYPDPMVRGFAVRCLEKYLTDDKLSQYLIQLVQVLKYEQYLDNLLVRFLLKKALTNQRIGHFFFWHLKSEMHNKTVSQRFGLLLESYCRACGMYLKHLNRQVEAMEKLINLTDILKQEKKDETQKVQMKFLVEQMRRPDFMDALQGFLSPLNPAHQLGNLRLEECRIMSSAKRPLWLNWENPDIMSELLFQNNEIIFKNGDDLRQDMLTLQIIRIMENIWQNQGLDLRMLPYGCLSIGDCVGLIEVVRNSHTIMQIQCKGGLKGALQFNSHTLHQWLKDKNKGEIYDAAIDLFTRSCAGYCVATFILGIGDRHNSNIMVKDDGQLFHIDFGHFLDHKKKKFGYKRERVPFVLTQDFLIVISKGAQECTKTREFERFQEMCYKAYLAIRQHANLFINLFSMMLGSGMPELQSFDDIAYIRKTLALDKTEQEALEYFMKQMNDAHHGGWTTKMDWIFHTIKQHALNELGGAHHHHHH

[3] = target: T3, PI3Kδ (Homo sapiens, UniProt O00329); experiment: PI3K KinaseGlo assay, PI3Kδ; format: biochemical; settings: 10 nM enzyme, 1 μM ATP, 30 mins, room temperature, read-out: PI3Kd/IC50
T3 construct: p85iSH2(461-568)-GGGGGG-p110δ(2-1044)-His; made in house; host or cells: baculovirus, Tn5 insect cells
T3 sequence (O00329 with tags, fused parts or gaps): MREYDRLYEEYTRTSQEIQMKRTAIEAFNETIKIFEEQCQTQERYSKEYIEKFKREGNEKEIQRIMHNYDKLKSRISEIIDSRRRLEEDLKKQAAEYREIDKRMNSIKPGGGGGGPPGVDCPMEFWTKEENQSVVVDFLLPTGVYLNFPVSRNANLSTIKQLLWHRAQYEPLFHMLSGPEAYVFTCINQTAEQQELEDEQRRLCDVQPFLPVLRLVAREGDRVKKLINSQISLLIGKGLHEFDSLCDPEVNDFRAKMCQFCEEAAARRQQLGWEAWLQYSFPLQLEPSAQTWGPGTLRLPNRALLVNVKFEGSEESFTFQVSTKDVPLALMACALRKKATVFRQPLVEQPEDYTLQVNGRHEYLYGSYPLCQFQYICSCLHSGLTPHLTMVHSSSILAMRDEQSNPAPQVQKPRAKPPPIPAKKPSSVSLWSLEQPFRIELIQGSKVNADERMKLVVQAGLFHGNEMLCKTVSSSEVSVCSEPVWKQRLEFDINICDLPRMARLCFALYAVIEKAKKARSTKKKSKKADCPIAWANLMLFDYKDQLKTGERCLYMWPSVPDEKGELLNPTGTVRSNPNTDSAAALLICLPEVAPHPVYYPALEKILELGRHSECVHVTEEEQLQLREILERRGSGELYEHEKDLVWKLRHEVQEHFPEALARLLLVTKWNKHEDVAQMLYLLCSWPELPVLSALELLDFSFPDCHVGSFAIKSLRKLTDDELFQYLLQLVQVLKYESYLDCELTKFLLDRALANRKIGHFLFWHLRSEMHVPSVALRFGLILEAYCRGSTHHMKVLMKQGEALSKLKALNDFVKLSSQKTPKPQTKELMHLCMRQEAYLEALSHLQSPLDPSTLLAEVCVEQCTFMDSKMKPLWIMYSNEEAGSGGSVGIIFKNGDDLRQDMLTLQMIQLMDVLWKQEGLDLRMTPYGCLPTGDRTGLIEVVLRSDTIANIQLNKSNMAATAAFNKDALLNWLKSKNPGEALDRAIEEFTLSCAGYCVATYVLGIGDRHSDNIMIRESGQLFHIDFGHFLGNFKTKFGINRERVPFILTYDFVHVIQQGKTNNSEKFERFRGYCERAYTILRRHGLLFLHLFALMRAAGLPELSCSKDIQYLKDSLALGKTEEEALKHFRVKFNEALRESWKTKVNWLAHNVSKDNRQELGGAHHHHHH

[4] = target: T4, PI3Kalpha E545K (Homo sapiens, UniProt P42336, E545K); experiment: Luciferase luminescence assay (KinaseGlo), PI3Kalpha E545K; format: biochemical; settings: construct BV1147; 1 μM ATP, 15 min preincubation, 1 h, room temperature; read-out: PI3Kalpha E545K IC50s
T4 construct: made in house; host or cells: baculovirus (vector LR561)
T4 sequence (P42336 with tags, fused parts or gaps E545K): as the sequence (P42336 with tags, fused parts or gaps) above, with G112I, G113S, G119I, G120M, G121V, E646K counted along it
From the text: (§4) Luminescence is a well established readout to determine ATP concentrations and can thus be used to follow the activity of many kinases regardless of their substrate. The KinaseGlo Luminescent Kinase Assay (Promega, Madison/WI, USA) is a homogeneous HTS method of measuring kinase activity by quantifying the amount of ATP remaining in solution following a kinase reaction.

[5] = target: T5, PI3Kalpha H1047R (Homo sapiens, UniProt P42336, H1047R); experiment: Luciferase luminescence assay (KinaseGlo), PI3Kalpha H1047R; format: biochemical; settings: construct BV1097; 1 μM ATP, 15 min preincubation, 1 h, room temperature; read-out: PI3Kalpha H1047R IC50s
T5 construct: made in house; host or cells: baculovirus (vector LR480)
T5 sequence (P42336 with tags, fused parts or gaps H1047R): as the sequence (P42336 with tags, fused parts or gaps) above, with G112I, G113S, G119I, G120M, G121V, H1148R counted along it
From the text: as §4

[6] = target: T6, PI3Kalpha wild type (Homo sapiens, UniProt P42336); experiment: Luciferase luminescence assay (KinaseGlo), PI3Kalpha wild type; format: biochemical; settings: construct BV1075; 1 μM ATP, 15 min preincubation, 1 h, room temperature; read-out: PI3Kalpha wild type IC50s
T6 construct: p110α(21-1068)-His; made in house
T6 sequence (P42336 with tags, fused parts or gaps): as the sequence (P42336 with tags, fused parts or gaps) above
From the text: as §4

[7] = target: T7, PI3Kβ (Homo sapiens, UniProt P42338); experiment: PI3K KinaseGlo assay, PI3Kβ; format: biochemical; settings: KinaseGlo; 25 nM enzyme, 1 μM ATP, 30 mins, room temperature; read-out: PI3Kb/IC50
T7 construct: p110β(2-1070)-His; made in house; host or cells: baculovirus, Tn5 insect cells
T7 sequence (P42338 with tags, fused parts or gaps): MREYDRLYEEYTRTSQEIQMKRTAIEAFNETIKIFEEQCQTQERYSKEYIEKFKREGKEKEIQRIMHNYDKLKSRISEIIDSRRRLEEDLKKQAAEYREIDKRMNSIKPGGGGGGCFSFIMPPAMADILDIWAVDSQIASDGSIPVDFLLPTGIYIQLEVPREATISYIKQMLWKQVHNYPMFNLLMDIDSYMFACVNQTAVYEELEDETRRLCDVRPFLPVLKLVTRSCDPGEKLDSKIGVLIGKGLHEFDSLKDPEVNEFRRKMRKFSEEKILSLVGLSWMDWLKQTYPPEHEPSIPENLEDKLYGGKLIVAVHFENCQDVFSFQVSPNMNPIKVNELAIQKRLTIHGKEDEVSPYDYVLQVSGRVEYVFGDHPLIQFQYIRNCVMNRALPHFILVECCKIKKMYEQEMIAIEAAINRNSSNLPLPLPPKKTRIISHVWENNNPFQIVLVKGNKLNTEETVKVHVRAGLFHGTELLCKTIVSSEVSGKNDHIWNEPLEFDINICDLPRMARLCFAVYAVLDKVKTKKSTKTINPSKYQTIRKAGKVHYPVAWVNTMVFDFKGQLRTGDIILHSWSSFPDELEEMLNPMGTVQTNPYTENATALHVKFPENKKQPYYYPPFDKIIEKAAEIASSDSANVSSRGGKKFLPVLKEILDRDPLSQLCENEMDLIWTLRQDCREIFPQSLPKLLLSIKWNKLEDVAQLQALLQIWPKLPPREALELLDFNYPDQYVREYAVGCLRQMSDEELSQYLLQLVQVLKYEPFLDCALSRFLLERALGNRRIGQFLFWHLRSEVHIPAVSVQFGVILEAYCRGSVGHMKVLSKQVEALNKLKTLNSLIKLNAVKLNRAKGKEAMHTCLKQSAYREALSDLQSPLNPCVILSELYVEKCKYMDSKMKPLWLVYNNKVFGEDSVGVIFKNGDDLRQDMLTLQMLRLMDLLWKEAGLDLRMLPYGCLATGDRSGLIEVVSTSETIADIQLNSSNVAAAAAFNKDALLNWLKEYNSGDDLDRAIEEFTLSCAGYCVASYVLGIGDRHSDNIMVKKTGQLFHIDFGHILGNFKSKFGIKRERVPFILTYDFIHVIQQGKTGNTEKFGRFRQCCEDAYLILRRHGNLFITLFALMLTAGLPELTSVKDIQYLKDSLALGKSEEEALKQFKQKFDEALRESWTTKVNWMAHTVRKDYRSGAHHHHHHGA
Procedure: as §1, with “PI3K KinaseGlo assay: […] of compound dilutions were dispensed onto black 384-well low volume Non Binding Styrene (NBS) plates (Costar Cat. No. NBS#3676). L-a-phosphatidylinositol” for “L-a-phosphatidylinositol”
5 μL of a mix of PI/OG with the PI3K subtype were added (Table 1). Kinase reactions were started by addition of 5 μl of ATP-mix containing in a final volume 10 μL 10 mM TRIS-HCl pH 7.5, 3 mM MgCl2, 50 mM NaCl, 0.05% CHAPS, 1 mM DTT and 1 μM ATP, and occurred at room temperature. […] The standard was used as a reference compound and included in all assay plates in the form of 16 dilution points in duplicate.
The PI3Kα, PI3Kβ and PI3Kδ constructs are fusion of p85α iSH2 domain and the respective p110 isoforms. The p85α fragment and p110 isoform genes were generated by PCR from first strand cDNA generated by RT-PCR from commercial RNA from placenta, testis and brain as described below. The PI3Kγ construct was obtained from Roger Williams lab, MRC Laboratory of Molecular Biology, Cambridge, UK (November, 2003) and is described (Pacold, Michael E.; Suire, Sabine; Perisic, Olga; Lara-Gonzalez, Samuel; Davis, Colin T.; Walker, Edward H.; Hawkins, Phillip T.; Stephens, Len; Eccleston, John F.; Williams, Roger L. Crystal structure and functional analysis of Ras binding to its effector phosphoinositide 3-kinase gamma. Cell (2000), 103(6), 931-943).
BV949: PCR products for the inter SH2 domain (iSH2) of the p85 PI3Kα, PI13Kβ and PI3Kδ subunit and for the full-length p110β subunit were generated and fused by overlapping PCR. […] The p11013 fragment was obtained by PCR using as template a p110β clone (from unknown source that was sequence verified) using primers gwG130-p04 (5′-[…]-[…]-3′) (SEQ ID NO: 9) which contains linker sequences and the 5′ end of p110β and gwG130-p06 (5′-[…]-[…]-3′) (SEQ ID NO: 10) which contains sequences of the 3′ end of p110-β fused to a Histidine tag. […] This final product was recombined in a Gateway (Invitrogen) […] into the donor vector pDONR201 (Invitrogen) to generate the ORF253 entry clone. This clone was verified by sequencing and used in a Gateway LR reaction (Invitrogen) to transfer the insert into the Gateway adapted pBlueBac4.5 (Invitrogen) vector for generation of the baculovirus expression vector LR280.
as §2
as §3, with “accordingly.” for “accordingly. An equal volume of Dialysis Buffer (20 mM Tris-Cl, pH 7.5, 500 mM NaCl, 50% glycerol, 5 mM NaF, 5 mM DTT) was added to the pool and than dialyzed against Dialysis Buffer two changes (one change overnight). Protein was stored at −20° C.”

[8] = In vitro metabolic clearance, rat liver microsomes (CYP MetCL-Ra); format: in vitro ADME; settings: rat liver microsomes 0.5 mg/mL, test article 1.0 μM, NADPH, 37° C.; read-out: CYP MetCL-Ra/CL(int)
Procedure: (§5) Final test article and protein concentrations, as well as incubation duration, are shown below (Table 1). Low test article concentrations were selected to comply with the assumption that reaction kinetics are evaluated at a concentration less than (or approximately equal to) Km. DMSO is known to have an inhibitory effect on CYP activity. Therefore, the concentration of DMSO in the incubation media has been restricted to 0.01% (v/v) so that interference to the metabolic process is minimized.
(§6) A typical experiment is performed in 96-well format with shaking incubation at 37° C. […] A 30 minutes negative control incubation (minus cofactor) is also performed to assess CYP-unrelated stability issues (eg, chemical instability, CYP-independent metabolism).
In general, TA's in 10 mM DMSO are diluted 1:1000 into 0.6% ACN (v/v) in DiH20 to 10 μM. […] For evaluation of UGT-mediated metabolism, the suspension may be first pretreated by 5 min incubation on ice with alamethicin (25 μg/mg of microsomal protein). […]
(§7) The bulk reactions for the remaining time points are initiated by addition of 125 μL of cofactor solution (2 mM NADPH in 50 mM KPi plus 4 mM MgCl2) to the remaining 125 μL of enzyme.substrate mixture. […] All the samples are centrifuged at ˜3400×g at 4° C. for 10 min and the supernatants are analyzed by LC-MS/MS for quantitation of remaining TA. […]

[9] = In vitro metabolic clearance, human liver microsomes (CYP MetCL-Hu); format: in vitro ADME; settings: human liver microsomes 0.5 mg/mL, test article 1.0 μM, NADPH, 37° C.; read-out: CYP MetCL-Hu/CL(int)
Procedure: as §5, §6
In general, TA's in 10 mM DMSO are diluted 1:1000 into 0.6% ACN (v/v) in DiH20 to 10 μM. […] For evaluation of UGT-mediated metabolism, the suspension may be first pretreated by 5 min incubation on ice with alamethicin (25 μg/mg of microsomal protein). TA (35 μL) is added to 140 μL of the microsomal suspensions for 175 μL enzymesubstrate mixture. […] The 30 min negative control incubation is processed by combining 25 μL of enzyme.substrate mixture with an equal volume of 50 mM KPi containing 4 mM MgCl2. Following a 30 minute incubation at 37° C., the mix is quenched by adding 50 μL of ACN containing the MS internal standard (2 μM alprenolol). The T=0 min time point is processed by combining 25 μL of enzyme.substrate mixture directly with 50 μL of ACN containing the MS internal standard (2 μM alprenolol). 25 μL of the cofactor solution is added (2 mM NADPH in 50 mM KPi plus 4 mM MgCl2; optionally including 2 mM UDPGA for CYP+UGT assays) to simulate the complete quenched reaction mixture.
as §7

T1 sequence (P48736 with tags, fused parts or gaps Q459R): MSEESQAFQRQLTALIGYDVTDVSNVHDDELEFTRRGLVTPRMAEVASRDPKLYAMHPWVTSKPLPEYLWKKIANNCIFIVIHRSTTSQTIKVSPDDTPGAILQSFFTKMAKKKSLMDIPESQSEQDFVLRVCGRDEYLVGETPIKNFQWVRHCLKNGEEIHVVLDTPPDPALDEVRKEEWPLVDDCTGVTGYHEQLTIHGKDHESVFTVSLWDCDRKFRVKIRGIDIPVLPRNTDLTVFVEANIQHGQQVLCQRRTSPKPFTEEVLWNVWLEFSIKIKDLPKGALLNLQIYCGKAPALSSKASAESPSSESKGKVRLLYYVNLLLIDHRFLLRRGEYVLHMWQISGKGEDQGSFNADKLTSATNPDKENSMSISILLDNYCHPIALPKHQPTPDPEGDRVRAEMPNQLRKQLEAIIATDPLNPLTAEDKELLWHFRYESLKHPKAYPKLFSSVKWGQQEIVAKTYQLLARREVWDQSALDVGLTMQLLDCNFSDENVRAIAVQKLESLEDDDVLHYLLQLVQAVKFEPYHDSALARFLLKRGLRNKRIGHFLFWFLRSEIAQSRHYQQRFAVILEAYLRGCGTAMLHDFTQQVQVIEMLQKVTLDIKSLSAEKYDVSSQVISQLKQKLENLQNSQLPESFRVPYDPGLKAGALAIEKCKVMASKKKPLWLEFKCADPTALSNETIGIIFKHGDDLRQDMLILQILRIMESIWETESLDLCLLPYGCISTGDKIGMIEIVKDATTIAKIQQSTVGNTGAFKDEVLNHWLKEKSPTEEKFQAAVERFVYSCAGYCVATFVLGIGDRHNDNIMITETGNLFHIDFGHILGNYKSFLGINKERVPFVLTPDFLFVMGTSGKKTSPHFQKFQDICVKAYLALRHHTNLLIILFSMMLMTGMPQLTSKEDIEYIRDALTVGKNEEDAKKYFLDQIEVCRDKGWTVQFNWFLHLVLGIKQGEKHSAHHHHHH

Compound | IC50 [1] | IC50 [2] | IC50 [3] | IC50 [4] | IC50 [5] | IC50 [6] | IC50 [7] | microsomal CLint at 1 μM [8] | microsomal CLint at 1 μM [9]
Cc1nc(NC(=O)N2CCC[C@H]2C(N)=O)sc1-c1ccnc(C2(C)CC2)c1 [Example 5, (S)-Pyrrolidine-1,2-dicarboxylic acid 2-amide 1-({4-methyl-5-[2-(1-methylcyclopropyl)-pyridin-4-yl]-thiazol-2-yl}-amide)] | 2050 nM | 44 nM | 648 nM | 6.7 nM | 7.7 nM | 8.2 nM | 3.91 µM | – | –
Cc1nc(NC(=O)N2CCC[C@H]2C(N)=O)sc1-c1ccnc(C(C)(CF)CF)c1 [Example 55, (S)-Pyrrolidine-1,2-dicarboxylic acid 2-amide 1-({5-[2-(2-fluoro-1-fluoromethyl-1-methyl-ethyl)-pyridin-4-yl]-4-methyl-thiazol-2-yl}-amide)] | – | – | – | – | – | – | – | 29 µL/min/mg | 27 µL/min/mg
